This note sets out measurements from patent US12606595B2, “Regentide-041 and composition comprising Regentide-041 for improving skin condition” (NINEBIOPHARM CO., LTD., priority 2020, dated 2026).

SMILES strings stand for the structures. Where a SMILES comes first, the peptide text is derived from it.

This assay concerns the target T1, Neutrophil Elastase (Homo sapiens, UniProt P08246).
T1 construct: purchased Enzo Life Science BML-AK497-001
T1 sequence (P08246 30-267): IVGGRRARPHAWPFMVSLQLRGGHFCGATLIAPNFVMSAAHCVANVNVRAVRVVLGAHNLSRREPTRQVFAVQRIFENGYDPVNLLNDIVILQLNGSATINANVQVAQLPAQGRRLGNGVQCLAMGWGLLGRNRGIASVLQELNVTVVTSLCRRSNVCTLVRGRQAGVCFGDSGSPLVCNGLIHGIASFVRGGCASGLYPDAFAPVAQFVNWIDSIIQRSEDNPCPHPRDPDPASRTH
The assay can be described thus: Elastase activity inhibitory ability, Neutrophil Elastase colorimetric method. The assay is classed as biochemical. As for the experimental part:
In order to confirm the elastase activity inhibitory ability of Regentide-041, it was measured using the Neutrophil Elastase colorimetric method (BML-AK497-001, Enzo Life Science, Pennsylvania, USA). Specifically, after an assay buffer and D.W. were diluted at 1:1, an elastase reagent and a substrate reagent were diluted to have final concentrations of 2.2 μU/μl and 100 μM, respectively. In addition, Regentide-041 was diluted to have final concentrations of 0.1, 1, 10, 50, 100, and 150 μM, respectively. A working solution was prepared by mixing the assay buffer, elastase reagent, and Regentide-041 diluent. […] of the working solution was put in each well of a 96-well plate and reacted at 37° C. for 5 minutes. Next, […] of the substrate reagent was put, and absorbance was measured for 15 minutes at absorbance 405 nm with a Microplate reader (Epoch 2 Microplate spectrophotometer. Biotek, Winooski, VT, USA).

Broadly, the inhibition is the change of the read-out against control, counted positive when it falls. `CC[C@H](C)[C@H](NC(=O)CNC(=O)CNC(=O)[C@H](CCCNC(=N)N)NC(=O)[C@@H]1CCCN1C(=O)[C@@H](NC(=O)[C@@H](N)CS)[C@@H](C)CC)C(=O)N[C@@H](CS)C(=O)N[C@@H](CC(C)C)C(=O)N[C@H](C(=O)N[C@@H](C)C(=O)N[C@@H](CC(C)C)C(N)=O)C(C)C` [Regentide-041, CIPRGGICLVAL-NH2] (H-CIPRGGICLVAL-NH2) showed an inhibition at 150 µM of 52.7 ± 1.2%.
